This is an account of results in patent US8765730B2 (Hoffmann-La Roche Inc, priority 2010, dated 2014).

Tested on in the first assay: not given
Assay: not given
To be noted: IV infusion (0.8 μmol/kg/min) for 90 min, obese and normal human subjects, over 24 hours; cited from earlier work.
In the case of PYY3-36, the reduced food intake is 33%.

A further assay has as its target T1, human GPBAR1 receptor (Homo sapiens, UniProt Q8TDU6).
T1 construct: expressed in transfected cells
T1 sequence (Q8TDU6 1-330): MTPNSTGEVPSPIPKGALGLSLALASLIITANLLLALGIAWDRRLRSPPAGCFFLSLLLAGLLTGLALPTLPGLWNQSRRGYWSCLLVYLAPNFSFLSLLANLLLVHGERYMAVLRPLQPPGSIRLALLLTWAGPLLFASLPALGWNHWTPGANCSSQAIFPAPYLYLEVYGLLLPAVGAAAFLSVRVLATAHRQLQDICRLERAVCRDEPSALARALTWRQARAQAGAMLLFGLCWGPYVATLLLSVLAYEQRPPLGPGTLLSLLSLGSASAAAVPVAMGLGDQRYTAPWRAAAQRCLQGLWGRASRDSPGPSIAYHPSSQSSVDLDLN
Put plainly: functional cAMP assay in CHO-dhfr(minus) cells expressing human GPBAR1 receptors. Format: cell-based. To be noted: human EC50, functional cAMP assay, 30 min at 30° C. Summed up: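 Agonist cAMP read-out: stable GPBAR1 CHO-dhfr− clone, 30 min compound exposure at 30° C following 30 min IBMX (1 mM) preincubation in Krebs Ringer bicarbonate. Time-resolved energy-transfer detection gives EC50; parental CHO cells serve as counter-screen.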
By EC50 is commonly meant the midpoint of the concentration-response curve. A lower EC50 goes with higher potency in that assay. Consider `Cc1ccccc1[C@@H](C/C(=N\O)c1cnc(=O)n(C)c1)c1ccc(Br)cc1` [Example 501, (S,E)-5-(3-(4-Bromophenyl)-1-(hydroxyimino)-3-o-tolylpropyl)-1-methylpyrimidin-2(1H)-one], for which the concentration for a half-maximal effect (EC50) is 225 nM. Take `Cc1ccccc1C(C/C(=N\O)c1ccc(=O)n(C)c1)c1ccc(C(=O)NCCC(=O)O)cc1` (stereo not drawn) [Example 214, 3-{4-[3-[(E)-Hydroxyimino]-3-(1-methyl-6-oxo-1,6-dihydro-pyridin-3-yl)-1-o-tolyl-propyl]-benzoylamino}-propionic acid]: it took 1220 nM to reach a half-maximal effect (EC50). In turn, `CC(C)CC(CC(=NO)c1ccncc1)c1ccc(Br)cc1` (racemic) [Example 114, 3-(4-Bromo-phenyl)-5-methyl-1-pyridin-4-yl-hexan-1-one oxime] had a half-maximal effective concentration (EC50) of 1080 nM. Same read-out and setting: the figure for `Cn1cc(/C(CC(c2ccc(-c3ccc(CC(=O)O)cc3)cc2)c2ccc(Cl)cc2F)=N/O)ccc1=O` (single isomer, unassigned) [Example 462, {4′-[(+)-1-(4-chloro-2-fluoro-phenyl)-3-[(E)-hydroxyimino]-3-(1-methyl-6-oxo-1,6-dihydro-pyridin-3-yl)-propyl]-biphenyl-4-yl}-acetic acid] is 153 nM; for `Cc1ccccc1[C@H](C/C(Cc1ccncc1)=N\O)c1ccc(-c2ccc(C(=O)O)cc2)cc1` [Example 298, 4′-{(R)-3-[(E)-Hydroxyimino]-4-pyridin-4-yl-1-o-tolyl-butyl}-biphenyl-4-carboxylic acid] it is 411 nM. The same measure, in the same setting: with `Cc1cc(Cl)ccc1C(C/C(=N\O)c1ccc(=O)n(C)c1)c1ccc(Oc2ccc(Cl)c(C(=O)O)c2)c(F)c1` (stereo not drawn) [Example 326, 2-Chloro-5-{4-[1-(4-chloro-2-methyl-phenyl)-3-[(E)-hydroxyimino]-3-(1-methyl-6-oxo-1,6-dihydro-pyridin-3-yl)-propyl]-2-fluoro-phenoxy}-benzoic acid] the figure was 137 nM. Still for that read-out and setting: the figure for `Cc1cc(F)ccc1C(C/C(=N\O)c1ccc(=O)n(C)c1)c1ccc(-c2ccc(N)cc2)cc1` (stereo not drawn) [Example 259, 5-{3-(4′-Amino-biphenyl-4-yl)-3-(4-fluoro-2-methyl-phenyl)-1-[(E)-hydroxyimino]-propyl}-1-methyl-1H-pyridin-2-one] is 50 nM; for `Cc1cc(/C(C[C@H](c2ccc(C3=CC(=O)NCC3)cc2)c2ccccc2C)=N/O)ccn1` [Example 377, (R,E)-4-(4-(3-(Hydroxyimino)-3-(2-methylpyridin-4-yl)-1-o-tolylpropyl)phenyl)-5,6-dihydropyridin-2(1H)-one] it is 12 nM; for `Cc1cc(C(CC(c2ccc(C#CCO)cc2)c2ccccc2C)=NO)ccn1` (racemic) [Example 85, 3-[4-(3-Hydroxy-prop-1-ynyl)-phenyl]-1-(2-methyl-pyridin-4-yl)-3-o-tolyl-propan-1-one oxime] it is 1 nM.

For `Cc1cc(/C(CC(c2ccc(C(=O)NC3CC3)cc2)c2ccc(F)cc2F)=N/O)ccn1` (stereo not drawn) [Example 432, N-Cyclopropyl-4-[1-(2,4-difluoro-phenyl)-3-[(E)-hydroxyimino]-3-(2-methyl-pyridin-4-yl)-propyl]-benzamide], the EC50 was 57 nM.

On to `Cc1ccccc1C(C/C(=N\O)c1ccc(=O)n(C)c1)c1ccc(C(=O)N[C@@H](CO)C(C)C)cc1` (single isomer, unassigned) [Example 306], for which the EC50 is 511 nM. Same read-out and setting: with `CN(CCO)C(=O)c1cccc(C(C/C(=N\O)c2ccc(=O)n(C)c2)c2ccc(Cl)cc2F)c1` (stereo not drawn) [Example 321, (E)-3-(1-(4-Chloro-2-fluorophenyl)-3-(hydroxyimino)-3-(1-methyl-6-oxo-1,6-dihydropyridin-3-yl)propyl)-N-(2-hydroxyethyl)-N-methylbenzamide] the figure was 5200 nM; with `Cc1cc(/C(CC(c2ccc(-c3ccc(C(=O)O)cc3C)cc2)c2ccc(Cl)cc2F)=N/O)ccn1` (stereo not drawn) [Example 456, 4′-[1-(4-Chloro-2-fluoro-phenyl)-3-[(E)-hydroxyimino]-3-(2-methyl-pyridin-4-yl)-propyl]-2-methyl-biphenyl-4-carboxylic acid], 16 nM. `Cc1cc(/C(C[C@@H](c2ccc(C(=O)N(C)C)cc2)c2ccc(Cl)cc2C)=N/O)ccn1` [Example 283, 4-[(S)-1-(4-Chloro-2-methyl-phenyl)-3-[(E)-hydroxyimino]-3-(2-methyl-pyridin-4-yl)-propyl]-N,N-dimethyl-benzamide] gave an EC50 of 51 nM.

In turn, `Cc1cc(/C(C[C@H](c2ccc(N[C@H]3C[C@H](C(=O)O)C3)cc2)c2ccccc2C)=N/O)ccn1` [Example 356, 3-{4-[(R)-3-[(E)-Hydroxyimino]-3-(2-methyl-pyridin-4-yl)-1-o-tolyl-propyl]-phenylamino}-cyclobutanecarboxylic acid] registered an EC50 of 90 nM.

In the case of `O=c1ccc(/C(CC(c2ccccc2)c2ccccc2)=N/O)c[nH]1` [Example 160, 5-{1-[(E)-Hydroxyimino]-3,3-diphenyl-propyl}-1H-pyridin-2-one], the 50% effective concentration (EC50) was determined as 1310 nM.

In the case of `Cc1cc(/C(CC(c2ccc(Br)cc2)c2cc(F)cc(F)c2)=N/O)ccn1` (stereo not drawn) [Example 445, 3-(4-Bromo-phenyl)-3-(3,5-difluoro-phenyl)-1-(2-methyl-pyridin-4-yl)-propan-1-one oxime], it took 27 nM to reach a half-maximal effect (EC50). Turning to `CCC(CC(=NO)c1ccncc1)c1cccc(Br)c1` (racemic) [Example 13, 3-(3-Bromo-phenyl)-1-pyridin-4-yl-pentan-1-one oxime], the EC50 was 173 nM. On the same count and under the same terms, the figure for `COCCN(C)c1ccc([C@@H](C/C(=N\O)c2ccnc(C)c2)c2ccccc2C)cc1` [Example 267, (E,R)-3-{4-[(2-Methoxy-ethyl)-methyl-amino]-phenyl}-1-(2-methyl-pyridin-4-yl)-3-o-tolyl-propan-1-one oxime] is 18 nM.

In the case of `Cn1cc(/C(CC(c2ccc(-c3ccc(CC(=O)O)cc3)cc2)c2ccc(Cl)cc2F)=N/O)ccc1=O` (stereo not drawn) [Example 460, {4′-[1-(4-Chloro-2-fluoro-phenyl)-3-[(E)-hydroxyimino]-3-(1-methyl-6-oxo-1,6-dihydro-pyridin-3-yl)-propyl]-biphenyl-4-yl}-acetic acid], the concentration giving a half-maximal response (EC50) came to 421 nM. The molecule `COC(=O)c1ccc(-c2cccc(C(CC(=NO)c3ccnc(C)c3)c3ccccc3C)c2)cc1F` (racemic) [Example 100, 3-Fluoro-3′-[3-[hydroxyimino]-3-(2-methyl-pyridin-4-yl)-1-o-tolyl-propyl]-biphenyl-4-carboxylic acid methyl ester] came in with an EC50 of 514 nM. In turn, `Cc1cc(/C(C[C@H](c2ccc(N[C@H]3C[C@@H](C(=O)O)C3)cc2)c2ccccc2C)=N/O)ccn1` [Example 300, 3-{4-[(R)-3-[(E)-Hydroxyimino]-3-(2-methyl-pyridin-4-yl)-1-o-tolyl-propyl]-phenylamino}-cyclobutanecarboxylic acid] returned a 50% effective concentration (EC50) of 55 nM. Still for that read-out and setting: with `Cc1cc(/C(C[C@H](c2ccc(C3CN(S(N)(=O)=O)C3)cc2)c2ccccc2C)=N/O)ccn1` [Example 485, (R,E)-3-(4-(3-(Hydroxyimino)-3-(2-methylpyridin-4-yl)-1-o-tolylpropyl)phenyl)azetidine-1-sulfonamide] the figure was 21 nM.
